Results reported in patent publication US10174401B2, “Methods for binding and precipitating gold using microbial-derived metallophores and their uses” (McMaster University, priority 2013, dated 2019).
*1 amine or outer side, *2 acyl side, *3 side chain or, on linkers, in order; H or OH if unused. Where a SMILES comes first, the peptide text is derived from it. [ ]: non-standard residue; d: D form. The star is where a group is joined. ξ: configuration not given here. NH(1-OH-2-oxopiperidin-3-yl) = O=C1C(N*)CCCN1O; ξOrn(N(OH)Ac) = CC(=O)N(O)CCCC(N)C(=O)O; ξOrn(N(OH)CHO) = NC(CCCN(O)C=O)C(=O)O; ξAsp(βξ-Me) = CC(C(=O)O)C(N)C(=O)O; X2 = C/C=C(/N[*:1])C(=O)[*:2]; X1 = CC(N)C(O)C(C)C(=O)*

Legend:
[1] = test system: D. acidovorans; experiment: Growth of D. acidovorans in presence of gold precipitate or AuCl3 (MIC); assay type: cell-based, Delftia acidovorans
Description: The assay was set up as follows: 50 μL of ddH2O containing 3.2, 1.6, 1.4, 1.2, 1.0, 0.8, 0.6, 0.4, and 0.2 mM delftibactin A was added in quadruplicate to wells within a 96-well plate. A 1.6 mM stock solution of AuCl3 was made and 50 μL was added to each well containing delftibactin A. No-delftibactin A and no-AuCl3 controls containing only water were also added to the 96-well plate in quadruplicate. This was incubated for 30 min at room temperature, during which time 10 mL of an overnight culture of D. acidovorans, grown in ACM was centrifuged and resuspended in 5 mL sterilized ddH2O. After 30 min incubation of AuCl3 with delftibactin, 100 μL of concentrated culture was added to each well. Final concentration of AuCl3 was 400 μM and the final concentrations of delftibactin A were 800, 400, 350, 300, 250, 200, 150, 100, and 50 μM. After 30 minutes of incubation at room temperature, mixtures were serial diluted and plated onto Nutrient Agar plates and incubated at 30° C. Colonies were counted after 24 h of growth. Results are shown as mean±s.d.; n=4. To assess whether D. acidovorans could grow in the presence of the gold precipitate, several milligrams of delftibactin A and AuCl3 were reacted 1:1 overnight and centrifuged, and washed once with water to concentrate the precipitate. The precipitate was resuspended in ddH2O at a final concentration of 100 mM, calculated using a molecular weight of 1227 g/mol, corresponding to a gold-delftibactin A species. D. acidovorans was grown overnight in a 96-well plate in 100 μL of ACM containing 20 μM to 10 mM gold precipitate or AuCl3. […] The MIC of AuCl3 was determined to be roughly 10 μM.

[2] = test system: D. acidovorans ΔdelG; experiment: Delftibactin-mediated protection against gold toxicity (CFU after acute exposure); assay type: cell-based, Delftia acidovorans
Description: Cultures of D. acidovorans wild type and D. acidovorans ΔdelG were grown in deferrated ACM for 2 days at 30° C. In 96-well plates, 200 μL of wild type or mutant grown culture were incubated in the presence and absence of 100 μM AuCl3. At the same time, the mutant culture was also complemented with […] delftibactin (biological levels) in the presence of 100 μM AuCl3. After 30 minutes, cultures were serially diluted in water and plated on LB agar to determine the colony forming units of D. acidovorans after gold exposure. Results are shown as mean s.d.; n=4; Two-tailed student's t-test.

[3] = Gold-siderophore reactions (gold nanoparticle formation, gold-iron competition, LC-MS of supernatant); conditions: for gold nanoparticle formation (visual inspection): 10 mM AuCl3 reacted with equimolar chelator; for concentration of metallophore after AuCl3 exposure: LC-MS, 2 hr exposure, vs unreacted control; for reaction with gold after pre-exposure to / in presence of iron: equimolar FeCl3
Description: Ten microliters of the AuCl3 stock solution was aliquoted into separate 200 μL microcentrifuge tubes, followed by the addition of 10 μL of each respective siderophore or metal chelator, where water was used as a control. The reaction was monitored over time and images were taken. After 2 h, a sample of the mixture was diluted 10× and analyzed by transmission electron microscopy (TEM) (see below). The remaining sample was centrifuged at 13,000 rpm for ten minutes. A 10 μL sample of the supernatant was diluted in 90 μL of water and subsequently analyzed by LC-MS. A control of unreacted siderophore and metal chelator of the same concentration was also analyzed for comparison. […] Reactions were monitored similarly. UV-vis spectrums were obtained using a Synergy 4 microplate reader (Biotek).

[4] = Exposure of acidobactin A to gold; conditions: when exposed to gold
[5] = Description: The gold-delftibactin A interaction was determined through two separate experiments. First, AuCl3 was held constant at 2.5 mM and the interaction with delftibactin A was monitored by measuring the absorption of AuCl3 remaining in solution after precipitation by delftibactin A through comparison with a standard curve. Briefly, 2.5 mM AuCl3 was incubated with 5, 2.5, 1.25, 0.6125, 0.3063, and 0.1531 mM delftibactin A for 1 h. Solutions were filtered with a 0.22 μM Acrodisc (Pall, USA) to remove insoluble delftibactin A-gold precipitate. 100 μl of the filtered reaction was placed in a 96-well plate and the absorbance was read at 300 nm using a SpectraMax 384 Plus (Molecular Devices, USA). Absorption was compared to an AuCl3 standard curve to determine the concentration of AuCl3 remaining in solution. To monitor the amount of delftibactin A remaining in solution after reaction with gold a similar experiment was conducted. Delftibactin A (2.5 mM) was incubated with 5, 2.5, 1.25, 0.6125, 0.3063, and 0.1531 mM AuCl3 for 1 h. Solutions were filtered similar to above. Reaction mixtures were analyzed using a Waters Alliance 2695 RP-HPLC separations module, equipped with a Waters 2998 photodiode array and a Luna 5u C18 column (250×4.60 mm, Phenomenex). The mobile phase was linear from 2% acetonitrile, 98% water+5 mM (NH4)2CO3 at 2 min to 14% acetonitrile at 18 min at a flow rate of 1 mL/min. […]
[6] = Test strip: metallophore on C18-silica TLC plate developed with gold chloride; conditions: immobilized on C18-silica TLC slide, developed with gold chloride solution
Description: Pictures were taken after 10 min.
A solution containing gold chloride was used to develop the strip. Pictures were taken at the times indicated.

[7] = TEM imaging of siderophore-gold reactions
Description: Transmission electron microscopy imaging was performed with a JEOL JEM 1299 EX TEMSCAN transmission electron microscope (JEOL, Peabody, Mass., USA) operated at an accelerating voltage of 80 kV. Sample preparation: a 2 μL drop of a diluted (10×) siderophore-gold reaction was deposited over a formvar-coated TEM grid, and was allowed to dry under ambient conditions before being imaged. Gold nanoparticle size distribution was determined using the software, ImageJ.

[8] = Time course of AuCl3 precipitation by delftibactins in absence and presence of FeCl3
Description: (§1) Twenty microliter reactions were set up as follows: i) water only, ii) 5 mM delftibactin A, iii) 5 mM AuCl3 iv) 5 mM FeCl3 v) 5 mM AuCl3+5 mM FeCl3 vi) 5 mM delftibactin B+5 mM AuCl3 vii) delftibactin B+5 mM AuCl3+5 mM FeCl3 viii) delftibactin B+5 mM FeCl3. Reactions were initiated by the addition of delftibactin and images were taken at time points indicated. After 2 h, reactions were serially diluted to 30 μM final concentration in ACM containing D. acidovorans ΔdelG diluted 1:1000 from an overnight culture. Optical density was monitored using a TECAN Sunrise™ microplate reader at 600 nm for 36 h. Results are a mean of three growth curves for each condition from a single representative experiment. As a second test of delftibactin protective capacity, D. acidovorans ΔdelG cells from an overnight culture were inoculated 1:1000 into 100 μL ACM in a 96-well plate containing 0 or 10 μM AuCl3, and then provided 0 or 100 μM delftibactin. Cultures were grown for 84 h at 250 rpm at 30° C. in a TECAN Sunrise™ microplate reader, measuring at 600 nm to assess growth. Results are a mean of three growth curves for each condition from a single representative experiment.

[9] = Citrate-gold and delftibactin A-gold comparison; conditions: room temperature, neutral pH
Description: Stock 10 mM solutions of sodium citrate and purified delftibactin A were mixed with and equimolar solution of AuCl3 and allowed to react at room temperature in 1.5 mL Eppendorf tubes. Photographs were taken from the initial addition of gold to 1 h exposure. Similarly, TEM experiments were performed by mixing 10 mM stock solutions of AuCl3 and either delftibactin A or sodium citrate 1:1 on a formvar-carbon coated 100-square mesh copper grid, imaging after 10 min AuCl3 exposure.

[10] = Transmission electron microscopy of delftibactin A:Au(III) complexes; conditions: delftibactin A:AuCl3 2:1, 10 min
Excerpt: Delftibactin A was reacted with AuCl3 with a molar ratio equal to 2:1 for ten minutes. Each separate reaction of delftibactin A with AuCl3 was examined using a Phillips CM-10 transmission electron microscopy operating at 80 kV. The whole-mount sample was absorbed and dried on a formvar-carbon coated 100-square mesh copper grid and rinsed with filter sterilized, de-ionized water to remove any salt precipitates.

[11] = test system: D. acidovorans ΔdelG; experiment: Gold detoxification in chronic exposure by delftibactin A (growth curves); assay type: cell-based, Delftia acidovorans
Description: as §1

[12] = test system: D. acidovorans ΔdelG; experiment: Gold protective comparison of delftibactin A and B (growth curves); assay type: cell-based, Delftia acidovorans; conditions: 125 μM AuCl3 + 125 μM delftibactin
Description: Twenty microliter reactions were set up as follows: water only, 5 mM AuCl3, 5 mM AuCl3+delftibactin A, and 5 mM AuCl3+delftibactin B. Reactions were initiated with the addition of delftibactin A or B. After 2 h, reactions were serially diluted to 125 μM in ACM containing D. acidovorans ΔdelG diluted 1:1000 from an overnight culture. Optical density was monitored using a TECAN Sunrise™ microplate reader at 600 nm for 36 h. Results are a mean of three growth curves for each condition from a single representative experiment.

Compound: [Cl][Au]([Cl])[Cl] [AuCl3]
- concentration at which toxic ([1]; D. acidovorans): 10 µM
- MIC of AuCl3 ([1]; D. acidovorans grown overnight in ACM, 96-well plate): roughly 10 μM
- growth of D. acidovorans ([1]; overnight in ACM containing 20 μM to 10 mM gold precipitate or AuCl3): No growth
- increase in sensitivity to gold toxicity in the ΔdelG strain ([2]; ΔdelG vs wild-type, 100 μM AuCl3, 30 min exposure, CFUs): 102.8 fold

Compound: O=C(O)CN(CCN(CC(=O)O)CC(=O)O)CC(=O)O [EDTA, ethylenediaminetetraacetic acid]
- gold nanoparticle formation (visual inspection) [3]: fail to develop a similar effect even after prolonged exposure to gold ions

Compound: CC1CC(=O)NC(CCCN(O)C=O)C(O)CC(=O)NC(C(C)O)C(=O)NC(CCCNO)C(=O)NC(CO)C(=O)NC(C(O)C(=O)O)C(=O)O1 (stereo not drawn) [acidobactin A]
- gold complexing [4]: shown the gold complexing phenomenon

Compound: CC(=O)N(O)CCCC[C@H](NC(=O)CC(O)(CC(=O)N[C@@H](CCCCN(O)C(C)=O)C(=O)O)C(=O)O)C(=O)O [aerobactin]
- gold nanoparticle formation (visual inspection) [3]: fail to produce defined gold nanoparticles

Compound: c1ccc(-c2ccccn2)nc1 [bipyridyl]
- gold nanoparticle formation (visual inspection) [3]: fail to develop a similar effect even after prolonged exposure to gold ions

Compound: C/C=C(/NC(=O)CNC(=O)C(C)NC(=O)C(NC(=O)C(C)C(O)C(C)N)C(C)C(=O)O)C(=O)NC(CCCN(O)C=O)C(=O)NC(C)C(=O)NC(CCCNC(=N)N)C(=O)NC1CCCN(O)C1=O (stereo not drawn) [delftibactin A] (X1-[ξAsp(βξ-Me)]AG[X2][ξOrn(N(OH)CHO)]AR-{NH(1-OH-2-oxopiperidin-3-yl)}; configuration not given here)
- solubility on complexing to gold [5]: abrupt and total loss of solubility
- co-precipitation with gold ([5]; 2.5 mM AuCl3, end-point assays): co-precipitate with gold from solution
- darkening of test strip [6]: darkening can be seen
- octahedral gold particle formation ([7]; TEM): also produces octahedral gold particles
- gold precipitation in presence of iron ([8]; equimolar 5 mM AuCl3 + 5 mM FeCl3): gold precipitation would proceed in the presence of high concentrations of iron
- timescale of creating gold structures from Au3+ [9]: seconds
- nature of gold precipitate by TEM [10]: abundance of colloidal gold nanoparticles and octahedral gold platelets
- toxicity [11]: nontoxic
- protection from chronic gold toxicity ([11]; exogenous addition to ΔdelG cultures, 100 μM delftibactin A + 10 μM AuCl3, 84 h): sufficient to overcome chronic gold toxicity
- gold nanoparticle formation (visual inspection) [3]: rapidly undergo a characteristic blackening
- concentration of metallophore after AuCl3 exposure [3]: decreased
- reaction with gold after pre-exposure to / in presence of iron [3]: gold reducing power is reduced
- rescue of ΔdelG strain from gold toxicity ([2]; exogenous purified delftibactin 30 sM, 100 μM AuCl3, 30 min): rescued
- detoxification / protection against AuCl3 toxicity [12]: more protective against AuCl3 toxicity than delftibactin B

Compound: C/C=C(/NC(=O)CNC(=O)C(C)NC(=O)C(NC(=O)C(C)C(O)C(C)N)C(C)C(=O)O)C(=O)NC(CCCN(O)C(C)=O)C(=O)NC(C)C(=O)NC(CCCNC(=N)N)C(=O)NC1CCCN(O)C1=O (stereo not drawn) [delftibactin B] (X1-[ξAsp(βξ-Me)]AG[X2][ξOrn(N(OH)Ac)]AR-{NH(1-OH-2-oxopiperidin-3-yl)}; configuration not given here)
- gold reduction efficiency ([8]; 5 mM AuCl3, compared with delftibactin A): less efficient in gold reduction
- gold nanoparticle formation (visual inspection) [3]: rapidly undergo a characteristic blackening
- detoxification / protection against AuCl3 toxicity [12]: decreased detoxification

Compound: O=C(N[C@H]1COC(=O)[C@@H](NC(=O)c2cccc(O)c2O)COC(=O)[C@@H](NC(=O)c2cccc(O)c2O)COC1=O)c1cccc(O)c1O [enterobactin]
- gold nanoparticle formation (visual inspection) [3]: considerable gold nanoparticle formation
- concentration of metallophore after AuCl3 exposure [3]: remained unchanged
- reaction with gold after pre-exposure to / in presence of iron [3]: reacts with gold to a similar extent as when iron is not present

Compound: CC(C)(C1=N[C@@](C)(C(=O)O)CS1)[C@H](O)[C@@H]1CSC([C@H]2CSC(c3ccccc3O)=N2)N1 (stereo partly drawn) [yersiniabactin, reference compound]
- nanoparticles seen by TEM ([7]; after 2 h reaction with AuCl3): did not create any distinct nanoparticles
- gold nanoparticle formation (visual inspection) [3]: does not generate substantial quantities of gold nanoparticles
